Test results reported in publication PMC7725003, “Systematically Studying the Optimal Amino Acid Distribution Patterns of the Amphiphilic Structure by Using the Ultrashort Amphiphiles” (Frontiers in Microbiology, 2020).
Where no end group is shown, it is not given here.

Test system: Gram-positive bacteria
Settings: geometric mean of MBCs, 7 Gram-positive strains (Table 2)

RLRLRLRLL-NH2 [L5]
GM MBC: 11.89 µM
